Laboratory results taken from patent US8557580B2, “Methods and compositions for the differentiation of stem cells” (Cellular Dynamics International, Inc., priority 2009, dated 2013).

Test system: Individualized ES cells
Assay: Attachment and survival of individualized ES cells seeded in TeSR medium with or without ROCK inhibitor
Assay type: cell-based, human
Settings: H1152 at 1 uM, fibronectin-coated surfaces
Experimental: Variations in input ES colony size and colony density can lead to substantial variability in performance of any differentiation method. Therefore, the dispersion of ES colonies into individual cells prior to initiating differentiation was investigated. Cultured populations of ES cells were dispersed or individualized with trypsin or TrypLE. Dispersed ES cells were then seeded in TeSR medium, with or without a ROCK inhibitor (H1152, 1 μM). Differentiation procedures described herein were performed with the individualized cultures.
Furthermore, if the seeding density is too low (less than approximately 1×10^4 cells per cm^2), cells detach and lose viability even in the presence of a ROCK inhibitor. If seeded at too high a cell density (greater than 5×10^4 cells per cm^2), cells remain attached, but fail to differentiate into hematoendothelial progenitors. The optimum seeding density between these limits is dependent on the method used for cell expansion, the passage number, and the overall condition of the ES cells.

Structure (SMILES): Cc1cncc2cccc(S(=O)(=O)N3CCCNC[C@@H]3C)c12 [H1152]
- attachment and survival of individualized ES cells: do not attach and survive without the addition of a survival factor
